# Measured values from PMC11597207, “Synthesis and Anti-Inflammatory and Analgesic Potentials of Ethyl 2-(2,5-Dioxo-1-Phenylpyrrolidin-3-yl)-2-Methylpropanoate” (Pharmaceuticals, 2024).
# Molecular target: T1, COX-2 (Homo sapiens, UniProt P35354)
# T1 construct: purchased Cayman Chemical Batch No.: G5234
# T1 sequence (P35354 18-604): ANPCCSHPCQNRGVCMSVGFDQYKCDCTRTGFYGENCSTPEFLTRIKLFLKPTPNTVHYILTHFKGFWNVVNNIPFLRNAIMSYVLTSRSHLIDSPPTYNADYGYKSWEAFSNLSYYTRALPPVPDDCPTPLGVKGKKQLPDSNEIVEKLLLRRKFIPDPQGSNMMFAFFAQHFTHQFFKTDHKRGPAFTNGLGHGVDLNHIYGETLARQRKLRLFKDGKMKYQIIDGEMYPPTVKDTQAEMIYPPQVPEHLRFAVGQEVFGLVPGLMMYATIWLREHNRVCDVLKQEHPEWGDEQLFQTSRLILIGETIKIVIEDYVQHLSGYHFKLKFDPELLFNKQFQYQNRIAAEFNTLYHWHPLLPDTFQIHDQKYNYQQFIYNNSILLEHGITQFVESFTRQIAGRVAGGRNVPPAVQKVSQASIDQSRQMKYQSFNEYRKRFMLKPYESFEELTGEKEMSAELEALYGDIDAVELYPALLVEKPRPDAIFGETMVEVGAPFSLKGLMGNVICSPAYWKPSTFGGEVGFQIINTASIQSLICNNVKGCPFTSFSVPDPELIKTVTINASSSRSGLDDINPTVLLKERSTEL
# Assay: COX-2 inhibitory assay
# Type: biochemical
# Experimental: The inhibitory potential of synthesized MAK01 was assessed using the COX-2 inhibitory protocol. The process started with the preparation of a COX-2 enzyme solution with a concentration of 300 U per ml. The activation of the enzymes was achieved by taking and mixing 10 μL and 50 μL of the COX-2 enzyme solution and a co-factor solution, respectively. Once mixed, this solution needed to be chilled. The chilling process was carried out at 4 °C in an ice bath. The duration for this cooling phase was set at five to six minutes. […] It was made up of 0.1 M Tris buffer with a pH of 8.0, 1 mM of hematin, 0.9 mM of glutathione, and 0.24 mM of TMPD in a phosphate buffer. Following the initial steps, a test sample was prepared. The volume of this sample was fixed at 20 μL. The 20 μL sample was mixed with 60 μL COX-2 solution. After combining them, the sample and enzyme solution were kept at ambient temperature. The solution was allowed to rest for a duration from five to ten minutes. To start the reaction, 20 μL of 30 mM arachidonic acid was incorporated. Upon adding the acid, the solution was subjected to an incubation period. This period lasted for 15 min at a temperature of 37 °C. Post incubation, HCl was added to stop the reaction. The absorbance of this final solution was then measured. This was carried out using a UV–visible spectrophotometer at a specific 570 nm wavelength. Similarly, the above procedure was used for all the other concentrations of the test sample. The COX-2 enzyme inhibition was calculated as per the below equation. […] Using the below formula, the percent inhibition of each sample was calculated. % Inhibition=Abs. test sample−Abs. background/Abs. solvent blank−Abs. background×100
# Using established protocols, the inhibitory potency of MAK01 against both COX-1 and COX-2 enzymes was assessed. This evaluation allowed for the determination of the selectivity of these new compounds. The IC50 values for both COX-1 and COX-2 were then used to calculate the selectivity index of the compound.
compound,measurement,setting,value
"CCOC(=O)C(C)(C)C1CC(=O)N(c2ccccc2)C1=O (stereo not drawn) [MAK01, ethyl 2-(2,5-dioxo-1-phenylpyrrolidin-3-yl)-2-methylpropanoate]",IC50,,449 µM
same,COX-2 percent inhibition,62.5 μg/mL,40%
same,inhibition at 62.5 µg/mL,"62.5 μg/mL, read-out: COX-2 percent inhibition",40.1%
same,COX-2 percent inhibition,125 μg/mL,49%
same,inhibition at 125 µg/mL,"125 μg/mL, read-out: COX-2 percent inhibition",49.4%
same,COX-2 percent inhibition,250 μg/mL,59%
same,inhibition at 250 µg/mL,"250 μg/mL, read-out: COX-2 percent inhibition",58.9%
same,COX-2 percent inhibition,500 μg/mL,68%
same,inhibition at 500 µg/mL,"500 μg/mL, read-out: COX-2 percent inhibition",67.8%
same,COX-2 percent inhibition,1000 μg/mL,79%
same,inhibition at 1000 µg/mL,"1000 μg/mL, read-out: COX-2 percent inhibition",78.7%
same,Selectivity for COX-2 compared to COX-1,from IC50 values of COX-1 and COX-2,3 fold
